In patent US8466191B2, “Pyrroline derivatives against cell releasing tumor necrosis factor, preparation methods and uses thereof” (priority 2006, dated 2013):

test system: release of TNFα in peripheral blood mononuclear cells (PBMCs) stimulated by lipopolysaccharide (LPS); experiment: Inhibition of the release of TNFα in peripheral blood mononuclear cells (PBMCs) stimulated by lipopolysaccharide (LPS), ELISA; assay type: cell-based, human; conditions: 3 μM compound; PBMCs 1×10^6 cells/mL, 1 hour preincubation, LPS 0.1 μg/mL, 20 hours incubation, TNFα in supernatant by ELISA
Protocol: Pharmacological Research: Effects on the release of TNFα in peripheral blood mononuclear cells (PBMCs) stimulated by lipopolysaccharide (LPS) by compounds of the invention
Release of cytokine TNFα by PBMCs in the peripheral blood stimulated by lipid polysaccharide (LPS) was studied in vitro.
PBMCs collected from blood of at least three volunteers were pretreated with heparin by a gradient separation method, and washed three times with a 1640 culture medium (10% calf serum, 2 mM L-glutamine, […] mercaptoethanol, 50 μg/mL streptomycin, and 50 U/mL penicillin). The obtained PBMCs were then placed into a 24-well cell culture plate and the concentration was adjusted to 1×10^6 cells/mL with 1640 culture medium. The compounds to be tested were dissolved in dimethylsulfoxide to obtain a solution having a required concentration. The solution was added to the above-mentioned cell culture medium and cultured in an incubator (5% CO2, 90% humidity) for 1 hour. Then, LPS (Sigma) was added until the concentration reached 0.1 μg/mL (except for the control).
After 20 hours incubation, the content of TNFα in the supernatant of the PBMC culture medium was assayed using an ELISA kit (America Genzyme Co) by a standard method. The TNFα inhibition rate was calculated using values measured in the control well (not treated) and the test wells (treated with the compound to be tested). The concentration of compounds giving a 50% TNFα inhibition (IC50 value) was calculated using nonlinear regression analysis. Each concentration was determined twice and an average value was reported.

Going from COc1ccc(C(CC#N)N2C(=O)c3csc(N)c3C2=O)cc1OC1CCCC1 (centres unmarked) [Example 42, 3-(3-Cyclopentyloxy-4-methoxy-phenyl)-3-(1-amino-4,6-dioxo-4H-thiophene[3,4-c]pyrrole-5(6H)-yl)propionitrile] to COc1ccc(C(CC#N)N2C(=O)c3csc(N)c3C2=O)cc1OC (centres unmarked) [Example 39, 3-(3,4-dimethoxy-phenyl)-3-(1-amino-4,6-dioxo-4H-thiophene[3,4-c]pyrrole-5(6H)-yl)propionitrile], the “Inhibition Rate (%)” value falls from 94.8% to 93.4%.

First: CCOc1ccc(C(CC#N)N2C(=O)c3csc(N)c3C2=O)cc1OC (centres unmarked) [Example 38, 3-(3-Methoxy-4-ethoxy-phenyl)-3-(1-amino-4,6-dioxo-4H-thiophene[3,4-c]pyrrole-5(6H)-yl)propionitrile]
Second: CCOc1cc(C(CC#N)N2C(=O)c3csc(N)c3C2=O)ccc1OC (centres unmarked) [Example 41, 3-(3-Ethoxy-4-methoxy-phenyl)-3-(1-amino-4,6-dioxo-4H-thiophene[3,4-c]pyrrole-5(6H)-yl)propionitrile]
The “Inhibition Rate (%)” value of the first is higher: 94.9% for the first, 91.2% for the second.

Going from CCOc1ccc(C(CC(=O)O)N2C(=O)c3cscc3C2=O)cc1OC (centres unmarked) [Example 58, 3-(3-Methoxy-4-ethoxy-phenyl)-3-(4,6-dioxo-4H-thiophene[3,4-c]pyrrole-5(6H)-yl)propionic acid] to CCOc1ccc(C(CC(=O)NO)N2C(=O)c3cscc3C2=O)cc1OC (centres unmarked) [Example 59, 3-(3-Methoxy-4-ethoxy-phenyl)-3-(4,6-dioxo-4H-thiophene[3,4-c]pyrrole-5(6H)-yl)-N-hydroxy propionamide], the “Inhibition Rate (%)” value rises from 20.7% to 80%.

Compared with COC(=O)CC(c1ccc(OC)c(OC)c1)N1C(=O)c2csc(N)c2C1=O (centres unmarked) [Example 23, methyl 3-(3,4-Dimethoxy-phenyl)-3-(1-amino-4,6-dioxo-4H-thiophene[3,4-c]pyrrole-5(6H)-yl)propionate], CCOc1ccc(C(CC(=O)OC)N2C(=O)c3csc(N)c3C2=O)cc1OC (centres unmarked) [Example 26, methyl 3-(3-Methoxy-4-ethoxy-phenyl)-3-(1-amino-4,6-dioxo-4H-thiophene[3,4-c]pyrrole-5(6H)-yl)propionate] is lower in “Inhibition Rate (%)” value: 95.4% for the first, 93.6% for the second.

Compared with CCN(CC)CCC(c1ccc(OCc2ccccc2)c(OC)c1)N1C(=O)c2cscc2C1=O (centres unmarked) [Example 55, 5-(1-(3-Methoxy-4-benzyloxyphenyl)-3-diethylamino-propyl)-5H-thiophene[3,4-c]pyrrole-4,6-dione], COc1cc(C(CCN(C)C)N2C(=O)c3cscc3C2=O)ccc1OCc1ccccc1 (centres unmarked) [Example 54, 5-(1-(3-Methoxy-4-benzyloxyphenyl)-3-dimethylamino-propyl)-5H-thiophene[3,4-c]pyrrole-4,6-dione] is lower in “Inhibition Rate (%)” value: 50.2% for the first, 41.4% for the second.

Going from COC(=O)CCCN1C(=O)c2cscc2C1=O [Example 16, methyl 4-(4,6-Dioxo-4H-thiophene[3,4-c]pyrrole-5(6H)-yl)butyrate] to COC(=O)CCN1C(=O)c2cscc2C1=O [Example 15, methyl 3-(4,6-Dioxo-4H-thiophene[3,4-c]pyrrole-5(6H)-yl)propionate], the “Inhibition Rate (%)” value rises from 38.4% to 40.9%.

Going from COC(=O)[C@@H](c1ccccc1)N1C(=O)c2cscc2C1=O [Example 18, D-methyl 2-(4,6-dioxo-4H-thiophene[3,4-c]pyrrole-5(6H)-yl)-2-phenylacetate] to COC(=O)[C@H](c1ccccc1)N1C(=O)c2cscc2C1=O [Example 17, L-methyl 2-(4,6-dioxo-4H-thiophene[3,4-c]pyrrole-5(6H)-yl)-2-phenylacetate], the “Inhibition Rate (%)” value falls from 84.1% to 83.5%.

First: COC(=O)[C@H](c1ccccc1)N1C(=O)c2csc(N)c2C1=O [Example 29, L-methyl 2-(1-amino-4,6-dioxo-4H-thiophene[3,4-c]pyrrole-5(6H)-yl)-2-phenylacetate]
Second: COC(=O)[C@@H](c1ccccc1)N1C(=O)c2csc(N)c2C1=O [Example 30, D-methyl 2-(1-amino-4,6-dioxo-4H-thiophene[3,4-c]pyrrole-5(6H)-yl)-2-phenylacetate]
The “Inhibition Rate (%)” value of the first is lower: 87.6% for the first, 91.4% for the second.

Compared with COC(=O)CC(c1ccc(OC)c(OC)c1)N1C(=O)c2cscc2C1=O (centres unmarked) [Example 1, methyl 3-(3,4-dimethoxy-phenyl)-3-(4,6-dioxo-4H-thiophene[3,4-c]pyrrole-5(6H)-yl)propionate], COC(=O)CC(c1ccc(OC)c(OC2CCCC2)c1)N1C(=O)c2csc(NC(C)=O)c2C1=O (centres unmarked) [Example 31, methyl 3-(3-Cyclopentyloxy-4-methoxy-phenyl)-3-(1-acetylamino-4,6-dioxo-4H-thiophene[3,4-c]pyrrole-5(6H)-yl)propionate] is higher in “Inhibition Rate (%)” value: 87.6% for the first, 93.6% for the second.

For COc1cc(C(CC#N)N2C(=O)c3csc(N)c3C2=O)ccc1OCc1ccccc1 (centres unmarked) [Example 40, 3-(3-Methoxy-4-benzyloxyphenyl)-3-(1-amino-4,6-dioxo-4H-thiophene[3,4-c]pyrrole-5(6H)-yl)propionitrile], the “Inhibition Rate (%)” value was 83.6%.

same assay, conditions: Homo sapiens, PBMC; 3 μM compound; PBMCs 1×10^6 cells/mL, 1 hour preincubation, LPS 0.1 μg/mL, 20 hours incubation, TNFα in supernatant by ELISA; read-out: Inhibition Rate (%)

In the case of O=C1CCC(N2C(=O)c3ccccc3C2=O)C(=O)N1 (centres unmarked) [Thalidomide, reference compound], the inhibition at 3 µM is reported as 22%.
